# Results: patent US9011863B2, “Combinations of kinase inhibitors for the treatment of cancer” (Exelixis, Inc., priority 2010, dated 2015)
# pIC50: −log10 of the molar value.
# Legend:
# [1] = tested on: phospho-Akt, HER3, RTKs and intracellular kinases in HCC1937 cells; experiment: phospho-RTK / phospho-kinase arrays and Western blotting in HCC1937 cells; assay type: cell-based, human
# Protocol: FIG. 1A. siRNA screen to identify kinases that potentially compensate for PI3K inhibition. HCC1937 breast cancer cells were treated with the indicated amounts of compound A for 6, 24, or 72 hours in medium containing 2.5% FBS. Cell lysates analyzed by immunoblotting with the indicated antibodies.
# (§1) FIGS. 3A and 3B. PI3K inhibition induces phosphorylation of RTKs and intracellular kinases. HCC1937 cells were treated with 10 μM compound A in medium containing 2.5% FBS for 0, 8, 24, or 48 hours. Media and drugs were replenished every 24 hours. Lysates were used to probe phospho-RTK arrays (FIG. 3A) or phospho-kinase arrays (FIG. 3B) (R&D systems). Corner spots are positive controls. Candidate kinases from the siRNA screen that are also phosphorylated upon treatment with compound A are shown in red.
# as §1, with “4A” for “3A”, “4B.” for “3B. PI3K inhibition induces phosphorylation of RTKs and intracellular kinases.”, “(A)” for “(FIG. 3A)”, “(B)” for “(FIG. 3B)”
# The purpose of the present study is to identify kinases and kinase-regulated signaling pathways that compensate for PI3K inhibition in human breast cancer cells. To this end, siRNA screen is employed targeting 779 human kinases in order to determine if downregulation of specific kinases increases the sensitivity of HCC1937 human breast cancer cells to the PI3K inhibitor compound A, which a compound of formula I and of Table 1. […] Following reverse transfection with the siRNA library, cells are treated with either DMSO or 10 μM compound A for 72 hours in a medium containing 2.5% fetal bovine serum (FIGS. 1A and 2) and the alamar blue assay is used to measure cell viability FIG. 1B. […] HCC1937 cells were treated with 10 μM compound A in medium containing 2.5% FBS for 0, 2, 8, or 24 hours. RNA was isolated with Trizol and purified using the RNeasy column (Qiagen). Gene expression from three independent experiments was measured using the Gene titan 3′ microarray. *, p<0.05; **, p<0.01 versus 0 hours, as shown in FIG. 5.
# [2] = tested on: human breast cancer cell lines; experiment: three-dimensional (3D) growth in Matrigel; assay type: cell-based; details: 3D Matrigel, 2.5% FBS, read-out: IC50 in cells tested in 3D
# Protocol: Cells were seeded in 8-well chamber slides in growth-factor reduced Matrigel (BD Biosciences, San Jose Calif., USA)±compound A according to published methods. Fresh medium and drugs were replenished every third day. Colonies were photographed with an inverted light microscope with an ocular magnification of 10 times on the days recited in figures herein.
# A panel of breast cancer cell lines with dysregulated PI3K activity was treated with increasing doses of compound A under two- and three-dimensional (2D and 3D) growth conditions. All experiments were conducted in 2.5% FBS-containing media, unless otherwise stated. […] This was further confirmed by immunoblot analysis of biomarkers of cell death and G1-S cell cycle transition in lysates from cells treated for 24 hours with compound A as shown in FIG. 10B.
# [3] = tested on: HER3 expression in A549 human lung xenografts; experiment: HER3 modulation in A549 tumors; assay type: in vivo, Swiss nude mice
# Protocol: Briefly, mice bearing measurable lung A549 tumors implanted SC have been left untreated or treated either by MM121 as a single agent (at dose of 5 mg/kg or 30 mg/kg, one administration) or by compound A as a single agent (at dose of 30 mg/kg or 100 mg/kg, daily administrations) or by a combination of both (at 30 mg/kg for MM121 and 100 mg/kg for compound A). The HER3 expression level in xenografted tumors has been followed for up to 96 hours.
smiles,measurement,setting,value
COc1ccc(Cl)c(Nc2nc3ccccc3nc2NS(=O)(=O)c2cccc(NC(=O)C(C)(C)N)c2)c1 [Compound A],phospho-Akt and HER3 by Western blotting,[1]; HCC1937,decreases phospho-Akt at S473 and T308 and increases phospho- and total HER3
same,phosphorylation of MAP kinases,[1]; HCC1937,"increases phosphorylation of the MAP kinases ERK, JNK, and p38 MAPK"
same,phospho-Akt,"[1]; HCC1937, 10 μM, 48 hours",phosphorylation at S473 is partially restored
same,phospho-Akt,"[1]; HCC1937, 10 μM, eight and 24 hour treatments",suppressed phospho-Akt at both S473 and T308
same,expression and/or phosphorylation of RTKs and intracellular kinases,"[1]; HCC1937, 10 μM, within 8-48 hours",increased expression and/or phosphorylation of many RTKs and intracellular kinases
same,pIC50,[2],≥ 5.22
same,"HER3 expression, Change vs Control (%)","[3]; Compound A 30 mg/kg PO: Q1Dx1, 4 h",−3%
same,"HER3 expression, Change vs Control (%)","[3]; Compound A 30 mg/kg PO: Q1Dx1, 24 h",12%
same,"HER3 expression, Change vs Control (%)","[3]; Compound A 30 mg/kg PO: Q1Dx2, 24 h",23%
same,"HER3 expression, Change vs Control (%)","[3]; Compound A 30 mg/kg PO: Q1Dx3, 24 h",27%
same,"HER3 expression, Change vs Control (%)","[3]; Compound A 100 mg/kg PO: Q1Dx1, 4 h",10%
same,"HER3 expression, Change vs Control (%)","[3]; Compound A 100 mg/kg PO: Q1Dx1, 24 h",19%
same,"HER3 expression, Change vs Control (%)","[3]; Compound A 100 mg/kg PO: Q1Dx2, 24 h",45%
same,"HER3 expression, Change vs Control (%)","[3]; Compound A 100 mg/kg PO: Q1Dx3, 24 h",37%
same,HER3 expression in A549 lung model (summary of Table 5),[3]; up to 96 hours,slight increase of HER3 expression
